# Measured values reported in ChEMBL document CHEMBL5108009, “Positron Emission Tomography (PET) Imaging Tracers for Serotonin Receptors” (J Med Chem, 2022).
# Assays:
# [1] = target: T1, D(2) dopamine receptor (Rattus norvegicus, UniProt P61169); assay: Displacement of [3H]-halopridol from rat striatum D2 receptors
# [2] = target: T2, Alpha-1A adrenergic receptor (Rattus norvegicus, UniProt P43140); assay: Displacement of [3H]-WB4101 from rat forebrain alpha 1 adrenergic receptors; assay type: tissue-based
# T2 sequence (P43140 whole entry): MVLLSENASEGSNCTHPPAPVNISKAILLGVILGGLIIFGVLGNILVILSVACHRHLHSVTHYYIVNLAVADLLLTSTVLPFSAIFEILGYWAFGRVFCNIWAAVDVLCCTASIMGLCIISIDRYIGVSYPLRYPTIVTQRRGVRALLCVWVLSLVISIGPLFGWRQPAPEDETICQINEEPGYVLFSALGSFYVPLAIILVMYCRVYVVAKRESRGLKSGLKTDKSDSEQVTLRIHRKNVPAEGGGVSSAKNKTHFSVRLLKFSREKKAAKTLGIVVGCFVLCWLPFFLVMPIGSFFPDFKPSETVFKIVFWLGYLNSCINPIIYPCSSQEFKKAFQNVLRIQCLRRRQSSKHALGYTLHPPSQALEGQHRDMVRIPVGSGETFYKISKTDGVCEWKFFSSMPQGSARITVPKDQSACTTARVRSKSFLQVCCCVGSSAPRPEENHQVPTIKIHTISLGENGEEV
# [3] = target: 5-hydroxytryptamine receptor 1D (Homo sapiens, UniProt P28221); assay: Binding affinity to human 5-HT1D receptor expressed in CHO cells assessed as inhibition constant; assay type: cell-based
# Sequence of 5-hydroxytryptamine receptor 1D (P28221 whole entry): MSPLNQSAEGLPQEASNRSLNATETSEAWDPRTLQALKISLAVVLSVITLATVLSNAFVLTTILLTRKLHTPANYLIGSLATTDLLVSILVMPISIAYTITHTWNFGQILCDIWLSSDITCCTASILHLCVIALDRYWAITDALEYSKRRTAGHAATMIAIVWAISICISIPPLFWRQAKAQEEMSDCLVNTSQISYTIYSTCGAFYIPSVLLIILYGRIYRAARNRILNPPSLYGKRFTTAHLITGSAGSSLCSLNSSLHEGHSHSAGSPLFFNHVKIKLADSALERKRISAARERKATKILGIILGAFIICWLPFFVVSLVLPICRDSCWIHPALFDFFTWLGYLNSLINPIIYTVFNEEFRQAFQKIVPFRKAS
# [4] = target: 5-hydroxytryptamine receptor 2B (Homo sapiens, UniProt P41595); assay: Binding affinity to human 5-HT2B receptor expressed in CHO cells assessed as inhibition constant; assay type: cell-based
# Sequence of 5-hydroxytryptamine receptor 2B (P41595 whole entry): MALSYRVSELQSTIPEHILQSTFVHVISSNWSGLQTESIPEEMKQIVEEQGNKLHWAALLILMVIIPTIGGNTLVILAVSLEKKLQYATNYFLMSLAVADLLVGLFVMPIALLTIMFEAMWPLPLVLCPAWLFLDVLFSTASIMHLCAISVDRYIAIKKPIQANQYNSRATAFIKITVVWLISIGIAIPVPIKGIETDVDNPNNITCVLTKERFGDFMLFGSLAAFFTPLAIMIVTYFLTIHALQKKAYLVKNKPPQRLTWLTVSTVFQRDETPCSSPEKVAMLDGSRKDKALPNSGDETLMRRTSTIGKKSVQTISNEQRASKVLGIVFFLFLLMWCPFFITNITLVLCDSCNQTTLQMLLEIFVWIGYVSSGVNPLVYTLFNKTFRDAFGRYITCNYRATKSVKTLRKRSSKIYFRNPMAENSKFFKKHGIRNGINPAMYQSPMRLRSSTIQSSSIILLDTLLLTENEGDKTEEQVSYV
# [5] = target: T3, Alpha-1A adrenergic receptor (Homo sapiens, UniProt P35348); assay: Binding affinity to human alpha 1A adrenergic receptor expressed in CHO cells assessed as inhibition constant; assay type: cell-based
# T3 sequence (P35348 whole entry): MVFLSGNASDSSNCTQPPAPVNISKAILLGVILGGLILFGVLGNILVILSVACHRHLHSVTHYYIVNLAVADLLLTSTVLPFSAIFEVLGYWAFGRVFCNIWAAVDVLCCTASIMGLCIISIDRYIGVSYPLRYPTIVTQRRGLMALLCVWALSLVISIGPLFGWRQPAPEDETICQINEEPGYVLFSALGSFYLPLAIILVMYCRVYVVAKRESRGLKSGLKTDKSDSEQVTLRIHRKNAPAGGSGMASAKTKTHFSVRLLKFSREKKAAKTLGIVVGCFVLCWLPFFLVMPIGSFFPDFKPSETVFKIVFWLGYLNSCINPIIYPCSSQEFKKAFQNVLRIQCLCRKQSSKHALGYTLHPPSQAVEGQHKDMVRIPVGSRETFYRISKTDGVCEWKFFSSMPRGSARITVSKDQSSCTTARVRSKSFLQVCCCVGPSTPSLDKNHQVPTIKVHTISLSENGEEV
# [6] = target: T4, 5-hydroxytryptamine receptor 1A (Homo sapiens, UniProt P08908); assay: Binding affinity to human 5-HT1A receptor expressed in CHO cells assessed as inhibition constant; assay type: cell-based
# T4 sequence (P08908 whole entry): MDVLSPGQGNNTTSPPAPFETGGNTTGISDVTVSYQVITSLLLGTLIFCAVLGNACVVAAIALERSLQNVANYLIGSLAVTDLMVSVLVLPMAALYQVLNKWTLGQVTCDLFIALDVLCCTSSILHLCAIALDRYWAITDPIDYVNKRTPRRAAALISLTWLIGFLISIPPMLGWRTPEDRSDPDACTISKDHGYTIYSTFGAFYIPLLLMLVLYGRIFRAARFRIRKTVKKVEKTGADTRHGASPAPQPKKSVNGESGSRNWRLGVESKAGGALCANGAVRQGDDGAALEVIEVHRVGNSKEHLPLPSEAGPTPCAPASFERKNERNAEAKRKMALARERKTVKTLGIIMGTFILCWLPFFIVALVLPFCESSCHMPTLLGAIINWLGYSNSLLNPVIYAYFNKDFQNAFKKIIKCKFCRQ
# [7] = target: D(4) dopamine receptor (Homo sapiens, UniProt P21917); assay: Binding affinity to human D4 receptor expressed in CHO cells assessed as inhibition constant; assay type: cell-based
# Sequence of D(4) dopamine receptor (P21917 whole entry): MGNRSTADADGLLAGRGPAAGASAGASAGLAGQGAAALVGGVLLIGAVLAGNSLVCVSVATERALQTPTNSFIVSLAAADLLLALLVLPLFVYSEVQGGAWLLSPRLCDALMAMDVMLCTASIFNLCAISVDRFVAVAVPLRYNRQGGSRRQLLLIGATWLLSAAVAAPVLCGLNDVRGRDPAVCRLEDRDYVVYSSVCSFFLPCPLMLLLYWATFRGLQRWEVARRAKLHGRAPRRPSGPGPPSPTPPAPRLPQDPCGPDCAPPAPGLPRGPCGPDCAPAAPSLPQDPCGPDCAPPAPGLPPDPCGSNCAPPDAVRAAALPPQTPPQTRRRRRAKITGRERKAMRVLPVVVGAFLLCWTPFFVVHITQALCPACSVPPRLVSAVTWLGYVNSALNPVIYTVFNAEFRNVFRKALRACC
# [8] = target: T1, D(2) dopamine receptor; assay: Binding affinity to rat brain homogenate D2 receptor assessed as dissociation constant; assay type: tissue-based
# [9] = target: Sodium-dependent serotonin transporter (Rattus norvegicus, UniProt P31652); assay: Binding affinity to rat brain homogenate SERT receptor assessed as dissociation constant; assay type: tissue-based
# Sequence of Sodium-dependent serotonin transporter (P31652 whole entry): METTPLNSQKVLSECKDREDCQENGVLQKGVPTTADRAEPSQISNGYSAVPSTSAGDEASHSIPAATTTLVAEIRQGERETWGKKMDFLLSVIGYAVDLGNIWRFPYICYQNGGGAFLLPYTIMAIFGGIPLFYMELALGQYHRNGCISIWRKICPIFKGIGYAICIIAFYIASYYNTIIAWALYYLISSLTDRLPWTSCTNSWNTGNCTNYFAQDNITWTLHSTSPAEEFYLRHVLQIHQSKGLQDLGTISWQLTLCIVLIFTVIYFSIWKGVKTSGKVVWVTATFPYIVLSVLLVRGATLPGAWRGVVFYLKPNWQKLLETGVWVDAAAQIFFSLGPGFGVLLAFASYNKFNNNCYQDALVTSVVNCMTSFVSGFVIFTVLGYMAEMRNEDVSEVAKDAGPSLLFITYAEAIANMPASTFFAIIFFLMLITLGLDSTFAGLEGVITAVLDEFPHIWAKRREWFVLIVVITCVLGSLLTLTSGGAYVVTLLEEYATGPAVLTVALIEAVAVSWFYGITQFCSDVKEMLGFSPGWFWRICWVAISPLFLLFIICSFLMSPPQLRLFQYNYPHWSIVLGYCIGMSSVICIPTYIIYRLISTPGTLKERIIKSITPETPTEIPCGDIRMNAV
# [10] = target: T5, 5-hydroxytryptamine receptor 1A (Rattus norvegicus, UniProt P19327); assay: Binding affinity to rat brain homogenate 5-HT1A receptor assessed as dissociation constant; assay type: tissue-based
# T5 sequence (P19327 whole entry): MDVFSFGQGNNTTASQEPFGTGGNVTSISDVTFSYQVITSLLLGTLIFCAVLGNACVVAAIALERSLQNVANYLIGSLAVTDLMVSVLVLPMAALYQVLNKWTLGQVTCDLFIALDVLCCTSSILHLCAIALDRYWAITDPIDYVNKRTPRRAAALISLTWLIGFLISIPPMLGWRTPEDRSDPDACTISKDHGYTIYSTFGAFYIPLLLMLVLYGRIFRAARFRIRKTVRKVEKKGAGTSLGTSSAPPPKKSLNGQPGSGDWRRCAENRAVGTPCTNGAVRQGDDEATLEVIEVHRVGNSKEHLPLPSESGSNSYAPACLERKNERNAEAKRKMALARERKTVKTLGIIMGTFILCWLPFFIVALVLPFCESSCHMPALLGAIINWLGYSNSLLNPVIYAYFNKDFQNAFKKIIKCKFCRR
# [11] = target: T4, 5-hydroxytryptamine receptor 1A
# [12] = Drug uptake ratio in cat brain dorsal raphe nucleus to cerebellum measured after 20 to 30 mins by camera ClearPET LYSO/LuYAP Phoswich-scanner analysis; assay type: ADME, tissue-based, Felis catus; conditions: time 20-30 min
# [13] = Drug uptake ratio in Sprague-Dawley rat brain cingulate cortex to cerebellum measured after 20 to 30 mins by camera ClearPET LYSO/LuYAP Phoswich-scanner analysis; assay type: ADME, tissue-based; conditions: time 20-30 min
# [14] = Binding affinity to rat cerebral cortex homogenate 5-HT1A receptor assessed as inhibition constant; assay type: tissue-based
# [15] = Biodistribution in Wistar rat assessed as uptake ratio of cortex to cerebellum at 50 to 100 microCi measured after 2 hrs; assay type: ADME, organism-based; conditions: in vivo, dose 50-100 microCi
# [16] = target: T1, D(2) dopamine receptor; assay: Displacement of [3H]-spiperone from rat frontal cortex membrane homogenate D2 receptor; assay type: cell membranes
# [17] = target: T2, Alpha-1A adrenergic receptor; assay: Displacement of [3H]-prazosin from rat whole cortex membrane homogenate alpha 1 adrenergic receptor; assay type: cell membranes
# [18] = target: 5-hydroxytryptamine receptor 2A (Rattus norvegicus, UniProt P14842); assay: Binding affinity to rat frontal cortex homogenate 5-HT2A by ketanserin assay; assay type: tissue-based
# Sequence of 5-hydroxytryptamine receptor 2A (Rattus norvegicus, UniProt P14842) (P14842 whole entry): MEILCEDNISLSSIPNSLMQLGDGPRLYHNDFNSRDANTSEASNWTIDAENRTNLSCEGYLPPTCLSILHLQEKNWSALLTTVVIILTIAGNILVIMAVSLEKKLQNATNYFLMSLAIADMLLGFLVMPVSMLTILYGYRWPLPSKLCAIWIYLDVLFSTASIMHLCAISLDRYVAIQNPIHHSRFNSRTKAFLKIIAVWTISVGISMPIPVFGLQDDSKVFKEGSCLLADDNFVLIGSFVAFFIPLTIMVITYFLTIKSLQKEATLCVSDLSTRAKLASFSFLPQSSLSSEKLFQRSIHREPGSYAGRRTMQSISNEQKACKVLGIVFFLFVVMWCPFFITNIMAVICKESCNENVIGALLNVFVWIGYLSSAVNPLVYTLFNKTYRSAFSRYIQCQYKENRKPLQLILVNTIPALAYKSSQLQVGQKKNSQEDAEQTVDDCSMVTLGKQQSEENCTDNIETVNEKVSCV
# [19] = target: 5-hydroxytryptamine receptor 2A (Homo sapiens, UniProt P28223); assay: Binding affinity to human frontal cortex homogenate 5-HT2A by ketanserin assay; assay type: tissue-based
# Sequence of 5-hydroxytryptamine receptor 2A (Homo sapiens, UniProt P28223) (P28223 whole entry): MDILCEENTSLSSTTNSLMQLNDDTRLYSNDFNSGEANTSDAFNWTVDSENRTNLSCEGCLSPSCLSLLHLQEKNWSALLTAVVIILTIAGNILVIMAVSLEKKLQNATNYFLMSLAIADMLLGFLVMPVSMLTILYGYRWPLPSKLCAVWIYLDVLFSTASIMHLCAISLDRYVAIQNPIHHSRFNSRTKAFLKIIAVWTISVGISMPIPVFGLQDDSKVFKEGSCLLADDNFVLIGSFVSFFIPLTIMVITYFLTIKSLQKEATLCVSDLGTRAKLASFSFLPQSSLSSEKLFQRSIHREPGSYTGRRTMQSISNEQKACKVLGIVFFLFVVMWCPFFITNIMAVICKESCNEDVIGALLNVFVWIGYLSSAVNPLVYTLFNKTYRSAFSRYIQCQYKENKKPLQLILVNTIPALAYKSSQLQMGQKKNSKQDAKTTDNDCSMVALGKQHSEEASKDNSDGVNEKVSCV
# [20] = target: Serotonin 2 (5-HT2) receptor (Rattus norvegicus, UniProt P30994+P08909+P14842); assay: Displacement of [3H]-spiperone from rat frontal cortex 5-HT2 receptor; assay type: tissue-based
# [21] = target: T1, D(2) dopamine receptor; assay: Displacement of [3H]-spiperone from rat striatum D2 receptor
# [22] = target: T2, Alpha-1A adrenergic receptor; assay: Displacement of [3H]prazosin from rat cerebral cortex alpha1 adrenergic receptor; assay type: tissue-based
# [23] = target: T4, 5-hydroxytryptamine receptor 1A; assay: Binding affinity to 5-HT1A receptor (unknown origin) assessed as inhibition constant by scintillation spectroscopic analysis
# [24] = target: T4, 5-hydroxytryptamine receptor 1A; assay: Displacement of [3H]-8-OH-DPAT from 5HT1A receptor (unknown origin)
# [25] = Ratio of drug uptake in human cortex to cerebellum assessed as increase in uptake relative to control; assay type: ADME, tissue-based
# T1 sequence (P61169 whole entry): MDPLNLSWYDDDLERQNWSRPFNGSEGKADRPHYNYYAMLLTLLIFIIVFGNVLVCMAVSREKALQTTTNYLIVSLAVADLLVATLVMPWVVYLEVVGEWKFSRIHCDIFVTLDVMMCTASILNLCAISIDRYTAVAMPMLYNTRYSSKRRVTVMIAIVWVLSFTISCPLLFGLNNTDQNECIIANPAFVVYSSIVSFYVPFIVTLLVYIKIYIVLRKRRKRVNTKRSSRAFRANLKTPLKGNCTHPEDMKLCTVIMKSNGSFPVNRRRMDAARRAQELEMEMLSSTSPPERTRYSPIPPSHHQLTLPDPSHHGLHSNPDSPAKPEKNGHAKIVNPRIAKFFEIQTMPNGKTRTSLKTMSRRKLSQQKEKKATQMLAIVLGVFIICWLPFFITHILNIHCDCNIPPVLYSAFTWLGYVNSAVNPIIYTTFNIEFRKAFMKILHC
compound,measurement,setting,value
O=C(c1ccc(F)cc1)C1CCN(CCn2c(=S)[nH]c3ccccc3c2=O)CC1 [ALTANSERIN],Ki,[1],62 nM
same,Ki,[2],5 nM
O=C(NCCN1CCN(c2cccc3c2OCCO3)CC1)c1ccc(F)cc1,Ki,[3],25 nM
same,Ki,[4],46 nM
same,Ki,[5],40 nM
same,Ki,[6],0.1 nM
same,Ki,[7],4 nM
COc1ccccc1N1CCN(CCn2cc(COCC(COc3ccc([Si]([18F])(C(C)(C)C)C(C)(C)C)cc3)OCc3cn(CCN4CCN(c5ccccc5OC)CC4)nn3)nn2)CC1 (stereo not given),Ki,[8],2.2 nM
same,Ki,[9],9.8 nM
same,Ki,[10],0.099 nM
Cc1cnc(CNCC2(F)CCN(C(=O)c3ccc([18F])c(Cl)c3)CC2)nc1,Ki,[11],2.24 nM
same,Ratio,[12],1.5
same,Ratio,[13],1.6
O=S1(=O)c2cccc3cccc(c23)N1CCCN1CCN(c2ccc(F)cc2)CC1 [FANANSERIN],Ki,[14],70 nM
O=C(c1ccc([18F])cc1)C1CCN(CCn2c(=S)[nH]c3ccccc3c2=O)CC1,Ratio,[15],11
CCN(CC)C(=O)[C@@H]1C=C2c3cccc4c3c(c(Br)n4C)CC2N(C)C1 (stereo not given in full),Ki,[16],3.9 nM
same,Ki,[17],34 nM
CN1CN(c2ccccc2)C2(CCN(CCCC(=O)c3ccc(F)cc3)CC2)C1=O [MESPIPERONE],Ki,[18],0.5 nM
same,Ki,[19],8.8 nM
same,IC50,[20],1.3 nM
same,IC50,[21],0.23 nM
same,IC50,[22],10.1 nM
CNc1nc(CNCC2(F)CCN(C(=O)c3ccc(F)c(Cl)c3)CC2)ccc1C,Ki,[23],0.04 nM
CSc1cccc(C(=O)NC[C@@H]2CCCN2CCc2ccccc2)c1,Ki,[24],4.3 nM
[2H]C([2H])(Cn1c(=S)[nH]c2ccccc2c1=O)N1CCC(C(=O)c2ccc([18F])cc2)CC1,Drug uptake,[25],26%
